{
  "source": "patent US12357627B2",
  "about": "“Pharmaceutical compositions of cabozantinib” (AZURITY PHARMACEUTICALS, INC., priority 2021, dated 2025)",
  "origin": "cited, not measured here",
  "key": {"[1]": {"settings": "mass balance study"}, "[2]": {"settings": "high-fat meal relative to fasted conditions, healthy subjects, single oral dose"}},
  "note": "Where two headings read alike, the source gives them in different places.",
  "data": [
    {"compound": "COc1cc2nccc(Oc3ccc(NC(=O)C4(C(=O)Nc5ccc(F)cc5)CC4)cc3)c2cc1OC", "note": "[Cabozantinib]", "values": [
      {"measurement": "solubility", "setting": "at pH>4", "result": "practically insoluble"},
      {"measurement": "solubility", "setting": "in 0.01N HCl", "result": 110, "unit": "µg/mL"},
      {"measurement": "solubility", "setting": "in water", "result": "practically insoluble"},
      {"measurement": "administered cabozantinib renally excreted", "setting": "[1]", "result": "at least 27%"},
      {"measurement": "increase of AUC", "setting": "[2]", "result": 57, "unit": "%"},
      {"measurement": "increase of Cmax", "setting": "[2]", "result": 41, "unit": "%"}
    ]}
  ]
}
